Source: ChEMBL document CHEMBL3046389, “Synthesis and biological evaluation of novel hydroquinone dimethyl ethers as potential anticancer and antimicrobial agents” (2013)

Legend:
Type in all cases: functional
ACHN [1] = experiment: Anticancer activity against Homo sapiens (human) ACHN cells after 48 hr by SRB assay; conditions: for CC50: read-out: LC50 (the source's name)
HCT-15 = experiment: Anticancer activity against Homo sapiens (human) HCT15 cells after 48 hr by SRB assay; conditions: HCT-15, 48 h; for CC50: read-out: LC50 (the source's name)
RXF 393 [2] = experiment: Growth inhibition of Homo sapiens (human) RXF393 cells at 10 uM after 48 hr by SRB assay; conditions: RXF 393, 48 h, read-out: GI
SN12C [3] = experiment: Anticancer activity against Homo sapiens (human) SN12C cells after 48 hr by SRB assay
SN12C [4] = experiment: Growth inhibition of Homo sapiens (human) SN12C cells at 10 uM after 48 hr by SRB assay; conditions: read-out: GI
SNB-19 = experiment: Growth inhibition of Homo sapiens (human) SNB19 cells at 10 uM after 48 hr by SRB assay; conditions: SNB-19, 48 h, read-out: GI
A498 = experiment: Anticancer activity against Homo sapiens (human) A498 cells after 48 hr by SRB assay; conditions: A498, 48 h
EKVX = experiment: Anticancer activity against Homo sapiens (human) EKVX cells after 48 hr by SRB assay; conditions: for CC50: read-out: LC50 (the source's name)
K562 = experiment: Growth inhibition of Homo sapiens (human) K562 cells at 10 uM after 48 hr by SRB assay; conditions: K562, 48 h, read-out: GI
A549 [5] = experiment: Anticancer activity against Homo sapiens (human) A549/ATCC cells after 48 hr by SRB assay; conditions: A549, 48 h; for CC50: read-out: LC50 (the source's name)
IGROV-1 = experiment: Anticancer activity against Homo sapiens (human) IGROV1 cells after 48 hr by SRB assay; conditions: IGROV-1, 48 h
OVCAR-5 = experiment: Anticancer activity against Homo sapiens (human) OVCAR5 cells after 48 hr by SRB assay; conditions: OVCAR-5, 48 h; for CC50: read-out: LC50 (the source's name)
MOLT-4 = experiment: Growth inhibition of Homo sapiens (human) MOLT4 cells at 10 uM after 48 hr by SRB assay; conditions: MOLT-4, 48 h, read-out: GI
BT-549 = experiment: Growth inhibition of Homo sapiens (human) BT549 cells at 10 uM after 48 hr by SRB assay; conditions: BT-549, 48 h, read-out: GI
MCF7 = experiment: Anticancer activity against Homo sapiens (human) MCF7 cells after 48 hr by SRB assay; conditions: MCF7, 48 h; for CC50: read-out: LC50 (the source's name)
HL-60(TB) = experiment: Anticancer activity against Homo sapiens (human) HL-60(TB) cells after 48 hr by SRB assay; conditions: HL-60, 48 h; for CC50: read-out: LC50 (the source's name)
SF-268 = experiment: Anticancer activity against Homo sapiens (human) SF268 cells after 48 hr by SRB assay; conditions: SF-268, 48 h; for CC50: read-out: LC50 (the source's name)
CCRF-CEM = experiment: Anticancer activity against Homo sapiens (human) CCRF-CEM cells after 48 hr by SRB assay; conditions: for CC50: read-out: LC50 (the source's name)
HOP-62 [6] = experiment: Anticancer activity against Homo sapiens (human) HOP62 cells after 48 hr by SRB assay; conditions: HOP-62, 48 h; for CC50: read-out: LC50 (the source's name)
HT-29 = experiment: Growth inhibition of Homo sapiens (human) HT-29 cells at 10 uM after 48 hr by SRB assay; conditions: HT-29, 48 h, read-out: GI
RXF 393 [7] = experiment: Anticancer activity against Homo sapiens (human) RXF393 cells after 48 hr by SRB assay; conditions: RXF 393, 48 h
NCI-H23 = experiment: Anticancer activity against Homo sapiens (human) NCI-H23 cells after 48 hr by SRB assay; conditions: NCI-H23, 48 h; for CC50: read-out: LC50 (the source's name)
UACC-257 = experiment: Anticancer activity against Homo sapiens (human) UACC257 cells after 48 hr by SRB assay; conditions: UACC-257, 48 h
OVCAR-8 = experiment: Anticancer activity against Homo sapiens (human) OVCAR8 cells after 48 hr by SRB assay; conditions: OVCAR-8, 48 h
A549 [8] = experiment: Growth inhibition of Homo sapiens (human) A549/ATCC cells at 10 uM after 48 hr by SRB assay; conditions: A549, 48 h, read-out: GI
OVCAR-4 = experiment: Anticancer activity against Homo sapiens (human) OVCAR4 cells after 48 hr by SRB assay; conditions: OVCAR-4, 48 h; for CC50: read-out: LC50 (the source's name)
SR = experiment: Anticancer activity against Homo sapiens (human) SR cells after 48 hr by SRB assay
NCI-H322M = experiment: Anticancer activity against Homo sapiens (human) NCI-H322M cells after 48 hr by SRB assay; conditions: for CC50: read-out: LC50 (the source's name)
SNB-75 = experiment: Anticancer activity against Homo sapiens (human) SNB75 cells after 48 hr by SRB assay; conditions: SNB-75, 48 h; for CC50: read-out: LC50 (the source's name)
OVCAR-3 = experiment: Anticancer activity against Homo sapiens (human) OVCAR3 cells after 48 hr by SRB assay; conditions: OVCAR-3, 48 h
HOP-62 [9] = experiment: Growth inhibition of Homo sapiens (human) HOP62 cells at 10 uM after 48 hr by SRB assay; conditions: HOP-62, 48 h, read-out: GI
SK-OV-3 = experiment: Growth inhibition of Homo sapiens (human) SKOV3 cells at 10 uM after 48 hr by SRB assay; conditions: SK-OV-3, 48 h, read-out: GI
LOX IMVI = experiment: Growth inhibition of Homo sapiens (human) LOXIMVI cells at 10 uM after 48 hr by SRB assay; conditions: read-out: GI
ACHN [10] = experiment: Growth inhibition of Homo sapiens (human) ACHN cells at 10 uM after 48 hr by SRB assay; conditions: read-out: GI

COc1ccc(OC)c(/C=C/c2nnc(S)n2-c2ccc(Cl)cc2)c1
GI50 (ACHN [1]): 23.8 µM
TGI (ACHN [1]): > 100 µM
CC50 (ACHN [1]): > 100 µM
GI50 (HCT-15): 4.39 µM
TGI (HCT-15): > 100 µM
CC50 (HCT-15): > 100 µM
inhibition of growth at 10 µM (RXF 393 [2]): 48.1%
GI50 (SN12C [3]): 6.07 µM
LC50 (SN12C [3]): > 100 µM
TGI (SN12C [3]): > 100 µM
inhibition of growth at 10 µM (SN12C [4]): 33.8%
inhibition of growth at 10 µM (SNB-19): 48.8%
GI50 (A498): 6.66 µM
LC50 (A498): > 100 µM
TGI (A498): > 100 µM
GI50 (EKVX): 30 µM
TGI (EKVX): > 100 µM
CC50 (EKVX): > 100 µM
inhibition of growth at 10 µM (K562): 77.6%
GI50 (A549 [5]): 9.07 µM
TGI (A549 [5]): > 100 µM
CC50 (A549 [5]): > 100 µM
GI50 (IGROV-1): 4.38 µM
LC50 (50% lethal concentration) (IGROV-1): > 100 µM
TGI (IGROV-1): > 100 µM
GI50 (OVCAR-5): 70.3 µM
TGI (OVCAR-5): > 100 µM
CC50 (OVCAR-5): > 100 µM
inhibition of growth at 10 µM (MOLT-4): 47.2%
inhibition of growth at 10 µM (BT-549): 32.8%
GI50 (MCF7): 4.44 µM
TGI (MCF7): > 100 µM
CC50 (MCF7): > 100 µM
GI50 (HL-60(TB)): 3.57 µM
TGI (HL-60(TB)): > 100 µM
CC50 (HL-60(TB)): > 100 µM
GI50 (SF-268): 17.5 µM
TGI (SF-268): > 100 µM
CC50 (SF-268): > 100 µM
GI50 (CCRF-CEM): 4.77 µM
TGI (CCRF-CEM): > 100 µM
CC50 (CCRF-CEM): > 100 µM
GI50 (HOP-62 [6]): 6.48 µM
TGI (HOP-62 [6]): > 100 µM
CC50 (HOP-62 [6]): > 100 µM
inhibition of growth at 10 µM (HT-29): 34.6%
GI50 (RXF 393 [7]): 3.38 µM
LC50 (RXF 393 [7]): > 100 µM
TGI (RXF 393 [7]): 38.7 µM
GI50 (NCI-H23): 5.88 µM
TGI (NCI-H23): > 100 µM
CC50 (NCI-H23): > 100 µM
GI50 (UACC-257): > 100 µM
LC50 (50% lethal concentration) (UACC-257): > 100 µM
TGI (UACC-257): > 100 µM
GI50 (OVCAR-8): 28.4 µM
LC50 (OVCAR-8): > 100 µM
TGI (OVCAR-8): > 100 µM
inhibition of growth at 10 µM (A549 [8]): 33.7%
GI50 (OVCAR-4): 20.6 µM
TGI (OVCAR-4): > 100 µM
CC50 (OVCAR-4): > 100 µM
GI50 (SR): 4.56 µM
TGI (SR): > 100 µM
CC50 (SR; read-out: LC50 (the source's name)): > 100 µM
GI50 (NCI-H322M): 26.9 µM
TGI (NCI-H322M): > 100 µM
CC50 (NCI-H322M): > 100 µM
GI50 (SNB-75): 2.85 µM
TGI (SNB-75): > 100 µM
CC50 (SNB-75): > 100 µM
GI50 (OVCAR-3): 3.34 µM
LC50 (OVCAR-3): > 100 µM
TGI (OVCAR-3): 21.4 µM

COc1ccc(OC)c(/C=C/C(=O)N/N=C/c2ccccc2)c1
GI50 (ACHN [1]): 9.66 µM
TGI (ACHN [1]): > 100 µM
CC50 (ACHN [1]): > 100 µM
GI50 (HCT-15): 3.62 µM
TGI (HCT-15): > 100 µM
CC50 (HCT-15): > 100 µM
inhibition of growth at 10 µM (RXF 393 [2]): 54.6%
GI50 (SN12C [3]): 4.17 µM
LC50 (SN12C [3]): > 100 µM
TGI (SN12C [3]): 39.9 µM
inhibition of growth at 10 µM (SN12C [4]): 47.9%
inhibition of growth at 10 µM (SNB-19): 52.1%
GI50 (A498): 12 µM
LC50 (A498): > 100 µM
TGI (A498): > 100 µM
GI50 (EKVX): 1.59 µM
TGI (EKVX): 59.5 µM
CC50 (EKVX): > 100 µM
inhibition of growth at 10 µM (K562): 78.8%
GI50 (A549 [5]): 4.29 µM
TGI (A549 [5]): > 100 µM
CC50 (A549 [5]): > 100 µM
GI50 (IGROV-1): 1.51 µM
LC50 (50% lethal concentration) (IGROV-1): > 100 µM
TGI (IGROV-1): > 100 µM
GI50 (OVCAR-5): 18 µM
TGI (OVCAR-5): > 100 µM
CC50 (OVCAR-5): > 100 µM
inhibition of growth at 10 µM (MOLT-4): 63.5%
inhibition of growth at 10 µM (BT-549): 39.2%
GI50 (MCF7): 3.79 µM
TGI (MCF7): > 100 µM
CC50 (MCF7): > 100 µM
inhibition of growth at 10 µM (HOP-62 [9]): 32.7%
GI50 (HL-60(TB)): 2.03 µM
TGI (HL-60(TB)): 13.7 µM
CC50 (HL-60(TB)): > 100 µM
GI50 (SF-268): 7.56 µM
TGI (SF-268): > 100 µM
CC50 (SF-268): > 100 µM
GI50 (CCRF-CEM): 3.97 µM
TGI (CCRF-CEM): > 100 µM
CC50 (CCRF-CEM): > 100 µM
GI50 (HOP-62 [6]): 4.95 µM
TGI (HOP-62 [6]): > 100 µM
CC50 (HOP-62 [6]): > 100 µM
inhibition of growth at 10 µM (HT-29): 79.3%
GI50 (RXF 393 [7]): 3.9 µM
LC50 (RXF 393 [7]): > 100 µM
TGI (RXF 393 [7]): 26.6 µM
GI50 (NCI-H23): 5.4 µM
TGI (NCI-H23): 87 µM
CC50 (NCI-H23): > 100 µM
GI50 (UACC-257): 5.76 µM
LC50 (50% lethal concentration) (UACC-257): > 100 µM
TGI (UACC-257): 33.6 µM
inhibition of growth at 10 µM (SK-OV-3): 40%
GI50 (OVCAR-8): 5.44 µM
LC50 (OVCAR-8): > 100 µM
TGI (OVCAR-8): 94.6 µM
inhibition of growth at 10 µM (A549 [8]): 51.6%
GI50 (OVCAR-4): 14.3 µM
TGI (OVCAR-4): > 100 µM
CC50 (OVCAR-4): > 100 µM
GI50 (NCI-H322M): 5.22 µM
TGI (NCI-H322M): > 100 µM
CC50 (NCI-H322M): > 100 µM
GI50 (SNB-75): 4.39 µM
TGI (SNB-75): 37.3 µM
CC50 (SNB-75): > 100 µM
inhibition of growth at 10 µM (LOX IMVI): 57.9%
GI50 (OVCAR-3): 3.15 µM
LC50 (OVCAR-3): > 100 µM
TGI (OVCAR-3): > 100 µM
inhibition of growth at 10 µM (ACHN [10]): 37.2%
